Assay results published in the OligoGym collection.
Several values for one entry are separate records, joined by “and”; a condition that tells them apart may be missing. Equal entries are not always repeated. After the bases stand the sugars from the 5' end (letter, count) and the backbone: PS all phosphorothioate, else s phosphorothioate and o phosphodiester by linkage. Methylation of C is not given here. e = 2'-O-(2-methoxyethyl) (MOE); k = constrained ethyl (cEt); d = 2'-deoxy (DNA)

Target: IRF4
Conditions: ASO

| Sequence | target mRNA inhibition (MM.1R, 1 µM) | target mRNA inhibition (SK-MEL-28, 4 µM) | also measured |
| --- | --- | --- | --- |
| AGGCACATCAATGTTT (sugars kkdddddddddkdkdk, PS) | 4% and 19% |  |  |
| AGCAAGTCGGTCCACA (sugars k3 d10 k3, PS) |  | 54% |  |
| AGACAGATGACATGCT (sugars k3 d10 k3, PS) |  | 50% |  |
| CTGACAAGAACTGCTG (sugars k3 d10 k3, PS) |  | 21% |  |
| GGTCACTTGGTTCTCT (sugars k3 d10 k3, PS) |  | 79% |  |
| AGCCAGTGGCTGAAAC (sugars k3 d10 k3, PS) |  | 21% |  |
| GGCAGTTGTGCCGTCT (sugars k3 d10 k3, PS) | -17% |  |  |
| AGCTACAAAGAGCACT (sugars k3 d10 k3, PS) |  | 33% |  |
| TTAAAGGAGTGCAGGA (sugars k3 d10 k3, PS) |  | 16% |  |
| AGCATATTCCAACAGG (sugars k3 d10 k3, PS) | 18% | 69% | target mRNA inhibition (MM.1R, 0.0625 µM): -1%; target mRNA inhibition (MM.1R, 0.074 µM): -8%; target mRNA inhibition (MM.1R, 0.222 µM): -6%; target mRNA inhibition (MM.1R, 0.25 µM): 6%; target mRNA inhibition (MM.1R, 0.666 µM): 19%; target mRNA inhibition (MM.1R, 2 µM): 32%; target mRNA inhibition (MM.1R, 4 µM): 58% |
| TTACTCTTAGGCACAT (sugars k3 d10 k3, PS) | 44% and 45% |  |  |
| GGTCTGGAAACTCCTC (sugars k4 d8 k4, PS) |  | 31% |  |
| GAGCCTGGGACTCAGG (sugars k3 d10 k3, PS) |  | 49% | target mRNA inhibition (MM.1R, 0.074 µM): 3%; target mRNA inhibition (MM.1R, 0.222 µM): 4%; target mRNA inhibition (MM.1R, 0.666 µM): -3%; target mRNA inhibition (MM.1R, 2 µM): 7%; target mRNA inhibition (SK-MEL-28, 0.185 µM): 7%; target mRNA inhibition (SK-MEL-28, 5 µM): 58%; target mRNA inhibition (SK-MEL-28, 15 µM): 87% |
| ACCTGGCAACCATTTT (sugars k3 d10 k3, PS) |  | 4% |  |
| GTAAACTGAAAGACCC (sugars k3 d10 k3, PS) |  | 35% |  |
| CTTCAGCAAAGAGGGT (sugars k3 d10 k3, PS) |  | 59% |  |
| CCTCCATTCTAACAGA (sugars k4 d8 k4, PS) |  | -22% |  |
| CTCTATAGTGTTCCAG (sugars kddddddddddkekek, PS) | 24% |  |  |
| GAAGTTTACACTGGAT (sugars kdddddddddkekeke, PS) | 11% |  |  |
| GAGTAAACTTGGCTGT (sugars k3 d10 k3, PS) |  | 38% |  |
| GCATTTTATCATCCGA (sugars k3 d10 k3, PS) |  | 63% |  |
| CACTAATACCTACCTG (sugars k3 d10 k3, PS) |  | 6% |  |
| TTGGAAAGACAAGTGC (sugars k3 d10 k3, PS) |  | 15% |  |
| CAGTGATGTCAGGTTT (sugars kkddddddddddkeke, PS) | 41% |  |  |

| Sequence | target mRNA inhibition (MM.1R, 1 µM) | target mRNA inhibition (SK-MEL-28, 4 µM) | also measured |
| --- | --- | --- | --- |
| CAGCATGACAGGGCGA (sugars k3 d10 k3, PS) |  | 56% |  |
| ACTTAAGCTAAACTCC (sugars k3 d10 k3, PS) |  | 21% |  |
| TAGTATGAGAAACGGC (sugars kkdddddddddekeke, PS) | 50% |  |  |
| CGAGATATAAATAGCT (sugars k3 d10 k3, PS) |  | 53% and 58% |  |
| CGCTGAATTGTCATGA (sugars k3 d10 k3, PS) | -1% |  |  |
| TTGTCATGGTGTAGGG (sugars k3 d10 k3, PS) |  | 41% |  |
| CTCCGGAGTCAGTGCT (sugars k3 d10 k3, PS) | 1% |  |  |
| CAATGATGGCAGTCTA (sugars k3 d10 k3, PS) |  | 40% |  |
| CGCCGGAGGCCGCCGT (sugars k3 d10 k3, PS) |  | 3% |  |
| TAGCATCAGAGCTAGA (sugars k3 d10 k3, PS) |  | 49% |  |
| GCACATCAATGTTTTA (sugars kdddddddddkekeke, PS) | 17% and 15% |  |  |
| CCACACCAGGAAACCG (sugars k3 d10 k3, PS) |  | 14% |  |
| TGAGAGTAAACTTGGC (sugars k3 d10 k3, PS) | 20% | 65% | target mRNA inhibition (MM.1R, 0.0625 µM): -3%; target mRNA inhibition (MM.1R, 0.074 µM): 5%; target mRNA inhibition (MM.1R, 0.222 µM): 1%; target mRNA inhibition (MM.1R, 0.25 µM): 11%; target mRNA inhibition (MM.1R, 0.666 µM): 18%; target mRNA inhibition (MM.1R, 2 µM): 32%; target mRNA inhibition (MM.1R, 4 µM): 44% |
| ATAGGAAGCACTGGCA (sugars k3 d10 k3, PS) |  | 42% |  |
| AGTAATTTTAAGGCCC (sugars k3 d10 k3, PS) |  | 60% |  |
| GTACGAGCACATGTCA (sugars k3 d10 k3, PS) | 0% |  |  |
| CTATCAGGATCTCAAG (sugars k3 d10 k3, PS) |  | 9% |  |
| TAACGAGGTGCCTTAC (sugars k3 d10 k3, PS) | 13% |  |  |
| AGGCACCTTCGCGGCC (sugars k3 d10 k3, PS) |  | 18% |  |
| AGCCACTATGGTAGGA (sugars k3 d10 k3, PS) |  | 43% |  |
| GGATAGATCTGTGGTA (sugars k3 d10 k3, PS) |  | 49% |  |
| TACCAGCTCAATAATC (sugars k3 d10 k3, PS) | -27% |  |  |
| CCTACAAGCAGTCATC (sugars k3 d10 k3, PS) |  | 54% |  |
